From publication PMC13379236 (Cell reports, 2026)

How the values were obtained:
[1] = tested on: NLRP1; conditions: treatment of cells with pan-CRL inhibitor; cited from earlier work
Description: Human NLRP1 (NACHT, LRR, and PYD domains-containing protein 1) has recently been characterized as a substrate of CRL2 in complex with either ZYG11B or ZER1.[7] NLRP1 is an effector-triggered immunity (ETI) sensor of pathogen-encoded proteases, wherein cleavage of NLRP1 in mice and humans by specific bacterial or viral proteases results in inflammasome formation, which leads to subsequent release of pro-inflammatory cytokines such as IL-1b and IL-18 and pyroptotic cell death.[7]-[10] The mechanism by which this occurs, termed functional degradation, depends on specific recognition, ubiquitinati ...

[2] = target: T1, ZYG11B-EloBC (Homo sapiens, UniProt Q9C0D3); experiment: MBP pull-down with substrate receptor module ZYG11B-EloBC; format: binding; conditions: MBP fusion on amylose resin, prey 1:1, 1 h, 4°C; SDS-PAGE, Coomassie
T1 sequence (Q9C0D3 whole entry, the tested form may be a part): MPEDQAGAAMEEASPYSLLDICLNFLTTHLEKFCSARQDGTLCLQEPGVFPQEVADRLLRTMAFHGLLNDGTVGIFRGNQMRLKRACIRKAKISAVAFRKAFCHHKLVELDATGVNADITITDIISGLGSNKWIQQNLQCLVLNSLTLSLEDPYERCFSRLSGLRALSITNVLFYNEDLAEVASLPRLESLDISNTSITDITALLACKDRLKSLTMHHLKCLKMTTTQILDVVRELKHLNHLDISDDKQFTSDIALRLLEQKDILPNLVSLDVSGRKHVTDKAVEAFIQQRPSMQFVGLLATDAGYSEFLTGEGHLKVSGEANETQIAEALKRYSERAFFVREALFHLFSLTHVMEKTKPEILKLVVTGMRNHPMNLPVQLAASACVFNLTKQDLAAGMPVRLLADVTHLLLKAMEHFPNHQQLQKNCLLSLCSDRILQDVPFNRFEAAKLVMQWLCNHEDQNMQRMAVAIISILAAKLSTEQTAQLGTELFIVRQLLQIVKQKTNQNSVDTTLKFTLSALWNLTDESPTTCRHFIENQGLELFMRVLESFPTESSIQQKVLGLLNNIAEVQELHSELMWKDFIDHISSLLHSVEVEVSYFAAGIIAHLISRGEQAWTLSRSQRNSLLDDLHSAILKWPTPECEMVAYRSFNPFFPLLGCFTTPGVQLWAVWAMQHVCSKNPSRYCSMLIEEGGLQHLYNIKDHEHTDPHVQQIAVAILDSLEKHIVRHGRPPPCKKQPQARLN
T1 sequence (Q15370 whole entry partner, the tested form may be a part): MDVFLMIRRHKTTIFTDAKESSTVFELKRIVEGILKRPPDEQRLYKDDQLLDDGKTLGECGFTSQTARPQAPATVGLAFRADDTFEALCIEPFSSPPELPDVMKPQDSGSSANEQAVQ
T1 sequence (Q15369 17-112 partner limits assumed): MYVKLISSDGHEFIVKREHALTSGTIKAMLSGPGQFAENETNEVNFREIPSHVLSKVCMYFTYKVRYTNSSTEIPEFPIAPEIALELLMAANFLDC
Procedure: Peptides corresponding to […] and […] were appended to the N terminus of maltose-binding protein (MBP) and cloned into pET-28a containing an N-terminal His6 tag followed by a TEV protease cleavage site. Fusion proteins were purified by Ni-NTA chromatography, digested with TEV protease, and passed over Ni-NTA resin again to remove TEV and the cleaved His6 tag. Final purification was performed by size-exclusion chromatography. The resulting proteins contained MBP fused to N-terminal Gly/N-degron overhangs. For pulldown experiments, approximately 100 μg MBP fusion protein was immobilized on 50 μL amylose resin and incubated with prey protein at a 1:1 molar ratio for 1 h at 4°C. Resin was washed three times, and bound proteins were eluted in sizing buffer supplemented with 20 mM maltose. Samples were analyzed by SDS-PAGE and Coomassie staining. Pulldown efficiency was quantified as the ratio of MBP–NLRP1 degron signal to ZYG11B signal in the same gel lane. […]
incubation of full-length Cyclin B1 without Gly/N-degron with ZYG11B–EloBC (top). SDS–PAGE analysis of the indicated fractions from the Superose 6 column (dashed lines) confirms complex formation (bottom) C, fluorescence anisotropy binding of ZYG11B-EloBC to indicated fluorescein-labeled peptides (left) and fitted equilibrium dissociation constants (right). […]

[3] = tested on: CRL2^ZYG11B; experiment: MBP pull-down with E3 holoenzyme CRL2^ZYG11B; format: binding, human; conditions: MBP fusion on amylose resin, prey 1:1, 1 h, 4°C; SDS-PAGE, Coomassie
Procedure: Bacmids were generated in DH10Bac cells and transfected into Sf9 cells to produce recombinant baculovirus, which was amplified through two additional rounds. Four liters of Sf9 cells at 2 × 10 ^6 cells/mL were infected with amplified virus and harvested after 60 h. Cell pellets were resuspended in buffer B (50 mM Tris-HCl, 500 mM NaCl, 0.5 mM EDTA, 0.5 mM TCEP, and 1 mM PMSF) supplemented with protease inhibitors, lysed by sonication, and clarified by ultracentrifugation at 40,000 rpm for 1 h. The supernatant was incubated with Strep-Tactin Sepharose resin for 2 h, washed extensively with buffer B, and eluted with 20 mM HEPES, pH 7.5, 300 mM NaCl, 0.5 mM TCEP, and 10 mM D-desthiobiotin. The complex was further purified by size-exclusion chromatography in the same sizing buffer used for ZYG11B–EloBC.
To reconstitute the pentameric CRL2–ZYG11B complex (ZBCC), purified ZYG11B–EloBC and CUL2/Rbx1 complexes were mixed at a 1:1 molar ratio and incubated on ice for 30 min. […]
Peptides corresponding to […] and […] were appended to the N terminus of maltose-binding protein (MBP) and cloned into pET-28a containing an N-terminal His6 tag followed by a TEV protease cleavage site. […] Samples were analyzed by SDS-PAGE and Coomassie staining. Pulldown efficiency was quantified as the ratio of MBP–NLRP1 degron signal to ZYG11B signal in the same gel lane. […]

[4] = tested on: CUL5/RBX2 with ZYG11B-EloBC; format: binding, human
[5] = target: T1, ZYG11B-EloBC; format: binding

| Compound | effect on HRV-mediated activation of NLRP1 [1] | interaction with ZYG11B-EloBC [2] | interaction with CRL2^ZYG11B [3] | amount of CUL5/RBX2 retained compared to CUL2/RBX1 [4] | co-purification / complex formation with ZYG11B-EloBC [5] |
| --- | --- | --- | --- | --- | --- |
| NS(=O)(=O)OC[C@@H]1C[C@@H](n2ccc3c(N[C@H]4CCc5ccccc54)ncnc32)C[C@@H]1O [MLN4924] | impairs HRV-mediated activation of NLRP1 | – | – | – | – |
| GSERRVLRQL [Degron-10] | – | interacted | interacted | reduced compared to CUL2/RBX1 | – |
| GSERRVLRQLPDTSG [chimera] | – | – | – | – | copurified with ZYG11B-EloBC |
| GSERRVLRQLPDTSGRRWRE [Degron-20] | – | interacted | interacted | reduced compared to CUL2/RBX1 | – |
